Structures can show the parent of a compound that is named as a salt. Where two headings read alike, the source gives them in different places.
Test: APCC in vivo screen: blood cholesterol in male Sprague-Dawley rats on high fat, high cholesterol diet with 0.5% cholic acid
Settings: high fat high cholesterol diet overnight; for change in vivo at 30 mg/kg / % Change (mg/dl) (cholesterol): single dose 30 mg/kg; for change in vivo at 30 mg/kg / change in vivo at 50 mg/kg: read-out: % Change (mg/dl) (cholesterol); for change in vivo at 50 mg/kg: single dose 50 mg/kg (*); for % Change (mg/dl) (cholesterol): 30 mg/kg
Text: In one in vivo screen designated APCC, male Sprague-Dawley rats (200 to 225 g) were randomly divided into treatment groups and dosed at 4 PM with either vehicle (CMC/Tween) or suspensions of compounds in vehicle. The normal chow diet was then replaced with a high fat, high cholesterol diet with 0.5% cholic acid. The rats consumed this diet ad libitum during the night and were sacrificed at 8 AM to obtain blood samples for cholesterol analysis using standard procedures. Statistical differences between mean cholesterol values for the same vehicle were determined using analysis of variance followed by Fisher's least significant test. The compounds were dosed at 30 mg/kg unless otherwise noted.

Row | SMILES | change in vivo at 30 mg/kg (Rattus norvegicus) | change in vivo at 50 mg/kg (Rattus norvegicus) | further results
1 | CC(C)c1cccc(C(C)C)c1OC(=O)NS(=O)(=O)N(C(C)C)C(C)C [Example 35, 2,6-Bis(1-methylethyl)phenyl[[bis(1-methylethyl)amino]sulfonyl]carbamate] | -76% |  | 
2 | CC(C)c1cccc(C(C)C)c1NS(=O)(=O)NC(=O)Oc1c(C(C)C)cccc1C(C)C [Example 16, 2,6-Bis(1-methylethyl)phenyl[[[2,6-bis(1-methylethyl)phenyl]amino]sulfonyl]carbamate] |  | -65% | 
3 | Cc1cc(C(C)(C)C)c(OC(=O)NS(=O)(=O)N(CCCN(C)C)CCCN(C)C)c(C(C)(C)C)c1 [Example 28, 2,6-Bis(1,1-dimethylethyl)-4-methylphenyl[[[bis-3-(di-methylamino)propyl]amino]sulfonyl]carbamate] |  |  | change in vivo at 30 mg/kg (rat): -13%
4 | CCCCN(CCCC)S(=O)(=O)NC(=O)Oc1c(C(C)C)cccc1C(C)C [Example 57, 2,6-bis(1-methylethyl)phenyl[(dibutylamino)sulfonyl]carbamate monosodium salt] |  |  | % Change (mg/dl) (cholesterol) (rat, monosodium salt): -66 % Change (mg/dl)
5 | COc1cc(C(C)(C)C)c(OC(=O)NS(=O)(=O)NCC(c2ccccc2)c2ccccc2)c(C(C)(C)C)c1 [Example 3] | -55% |  | 
6 | CCCCCCNS(=O)(=O)NC(=O)Oc1c(C(C)(C)C)cc(C)cc1C(C)(C)C [Example 26, 2,6-Bis(1,1-dimethylethyl)-4-methylphenyl[(hexylamino)sulfonyl]carbamate] | -52% |  | 
7 | CC(C)(C)c1cccc(C(C)(C)C)c1OC(=O)NS(=O)(=O)NC(c1ccccc1)c1ccccc1 [Example 5, 2,6-bis(1,1-dimethylethyl)phenyl[[(diphenylmethyl)amino]sulfonyl]carbamate] |  | -35% | 
8 | CCCCN(CCCC)S(=O)(=O)NC(=O)Oc1c(C(C)(C)C)cc(C)cc1C(C)(C)C [Example 22, 2,6-Bis(1,1-dimethylethyl)-4-methylphenyl[(dibutylamino)sulfonyl]carbamate] | -4% |  | 
9 | CCCCCCNS(=O)(=O)NC(=O)Oc1c(C(C)C)cccc1C(C)C [Example 37, 2,6-Bis(1-methylethyl)phenyl[(hexylamino)sulfonyl]carbamate] | -58% |  | 
10 | CC(C)c1cccc(C(C)C)c1OC(=O)NS(=O)(=O)Nc1nc2ccccc2[nH]1 [Example 13, 2,6-Bis(1-methylethyl)phenyl[(1H-benzimidazol-2-ylamino)sulfonyl]carbamate] | 8% |  | 
11 | CC(C)c1cccc(C(C)C)c1OC(=O)NS(=O)(=O)Nc1ccccc1 [Example 14, 2,6-Bis(1-methylethyl)phenyl[(phenylamino)sulfonyl]carbamate] |  | -55% | 
12 | CCCCCCN(CCCCCC)S(=O)(=O)NC(=O)Oc1c(C(C)C)cccc1C(C)C [Example 41, 2,6-Bis(1-methylethyl)phenyl[(dihexylamino)sulfonyl]carbamate] | -62% |  | 
13 | CN(C(=O)Oc1c(C(C)(C)C)cccc1C(C)(C)C)S(=O)(=O)NC(c1ccccc1)c1ccccc1 [Example 58, 2,6-bis(1,1-dimethylethyl)phenyl[[(diphenylmethyl)amino]sulfonyl]methyl carbamate] | 4% |  | 
14 | CCCCCCN(CCCCCC)S(=O)(=O)NC(=O)Oc1c(C(C)(C)C)cc(C)cc1C(C)(C)C [Example 25, 2,6-Bis(1,1-dimethylethyl)-4-methylphenyl[(dihexylamino)sulfonyl]carbamate] | -40% |  | 
15 | CC(C)(C)c1cccc(C(C)(C)C)c1OC(=O)NS(=O)(=O)N(Cc1ccccc1)Cc1ccccc1 [Example 9] |  | -3% | 
16 | CC(C)c1cccc(C(C)C)c1OC(=O)NS(=O)(=O)N(Cc1ccccc1)C(C)C [Example 36] | -70% |  | 
17 | CCCCCCCCN(CCCCCCCC)S(=O)(=O)NC(=O)Oc1c(C(C)(C)C)cc(C)cc1C(C)(C)C [Example 31, 2,6-Bis(1,1-dimethylethyl)-4-methylphenyl[(dioctylamino)sulfonyl]carbamate] | 0% |  | 
18 | Cc1cc(C(C)(C)C)c(OC(=O)NS(=O)(=O)NC(c2ccccc2)c2ccccc2)c(C(C)(C)C)c1 [Example 18, 2,6-Bis(1,1-dimethylethyl)-4-methylphenyl[[(diphenylmethyl)amino]sulfonyl]carbamate] |  | -42% | 
19 | CCCCCCCCCCN(CCCCCCCCCC)S(=O)(=O)NC(=O)Oc1c(C(C)(C)C)cc(C)cc1C(C)(C)C [Example 34] | -4% |  | 
20 | CC(C)c1cccc(C(C)C)c1OC(=O)NS(=O)(=O)N(Cc1ccccc1)Cc1ccccc1 [Example 12, 2,6-Bis(1-methylethyl)phenyl[[bis(phenylmethyl)amino]sulfonyl]carbamate] | -43% |  | 
21 | CCCCCN(CCCCC)S(=O)(=O)NC(=O)Oc1c(C(C)(C)C)cc(C)cc1C(C)(C)C [Example 23, 2,6-Bis(1,1-dimethylethyl)-4-methylphenyl[(dipentylamino)sulfonyl]carbamat] | -42% |  | 

Row | SMILES | change in vivo at 30 mg/kg (Rattus norvegicus) | change in vivo at 50 mg/kg (Rattus norvegicus) | further results
22 | Cc1cc(C(C)(C)C)c(OC(=O)NS(=O)(=O)NCC(c2ccccc2)c2ccccc2)c(C(C)(C)C)c1 [Example 20, 2,6-Bis(1,1-dimethylethyl)-4-methylphenyl[[(2,2-diphenylethyl)amino]sulfonyl]carbamate] |  | -54% | 
23 | CC(C)c1cccc(C(C)C)c1OC(=O)NS(=O)(=O)NC(c1ccccc1)c1ccccc1 [Example 17, 2,6-Bis(1-methylethyl)phenyl[[(diphenylmethyl)amino]sulfonyl]carbamate] |  | -46% | 
24 | CCCCCN(CCCCC)S(=O)(=O)NC(=O)Oc1c(C(C)C)cccc1C(C)C [Example 42, 2,6-Bis(1-methylethyl)phenyl[(dipentylamino)sulfonyl]carbamate] | -74% |  | 
25 | CC(C)c1cccc(C(C)C)c1OC(=O)NS(=O)(=O)N(c1ccccc1)c1ccccc1 [Example 10, 2,6-bis(1-methylethyl)phenyl[(diphenylamino)sulfonyl]carbamate] | -67% |  | 
26 | Cc1cc(C(C)(C)C)c(OC(=O)NS(=O)(=O)Nc2c(C(C)C)cccc2C(C)C)c(C(C)(C)C)c1 [Example 19] |  | -56% | 
27 | CC(C)(C)c1cccc(C(C)(C)C)c1OC(=O)NS(=O)(=O)Nc1ccccc1 [Example 8, 2,6-bis(1,1-dimethylethyl)phenyl[(phenylamino)sulfonyl]carbamate] |  | -26% | 
28 | CCCCCCCCCCCCOC(=O)NS(=O)(=O)Nc1c(OC)cc(OC)cc1OC [Example 43, Dodecyl[[(2,4,6-trimethoxyphenyl)amino]sulfonyl]carbamate] |  |  | change in vivo at 30 mg/kg (rat): -8%
29 | CC(C)c1cccc(C(C)C)c1NS(=O)(=O)NC(=O)Oc1c(C(C)(C)C)cccc1C(C)(C)C [Example 6, 2,6-bis(1,1-dimethylethyl)phenyl[[[2,6-bis(1-methylethyl)phenyl]amino]sulfonyl]carbamate] |  | -57% | 
30 | CCCCCCCCCCCCOC(=O)NS(=O)(=O)Nc1c(C(C)C)cccc1C(C)C [Example 2] |  |  | change in vivo at 30 mg/kg (rat): 0%
31 | Cc1cc(C(C)(C)C)c(OC(=O)NS(=O)(=O)N(C)CCc2ccccn2)c(C(C)(C)C)c1 [Example 33, 2,6-Bis(1,1-dimethylethyl)-4-methylphenyl[[[methyl 2-(2-pyridinyl)ethyl]amino]sulfonyl]carbamate, sodium salt] |  |  | % Change (mg/dl) (cholesterol) (rat, sodium salt): -22 % Change (mg/dl)
32 | CC(C)(C)c1cccc(C(C)(C)C)c1OC(=O)NS(=O)(=O)NCC(c1ccccc1)c1ccccc1 [Example 7, 2,6-bis(1,1-dimethylethyl)phenyl[[(2,2-diphenylethyl)amino]sulfonyl]carbamate] |  | -32% | 
33 | CC(C)c1cccc(C(C)C)c1OC(=O)NS(=O)(=O)N1CCc2ccccc21 [Example 54] | -77% |  | 
34 | Cc1cc(C(C)(C)C)c(OC(=O)NS(=O)(=O)Nc2ccccc2)c(C(C)(C)C)c1 [Example 21, 2,6-Bis(1,1-dimethylethyl)-4-methylphenyl[(phenylamino)sulfonyl]carbamate] |  | -33% | 
35 | CCCCCCCCN(CCCCCCCC)S(=O)(=O)NC(=O)Oc1c(C(C)C)cccc1C(C)C [Example 38, 2,6-Bis(1-methylethyl)phenyl[(dioctylamino)sulfonyl]carbamate] | -70% |  | 
36 | COc1cc(C(C)(C)C)c(OC(=O)NS(=O)(=O)Nc2c(C(C)C)cccc2C(C)C)c(C(C)(C)C)c1 [Example 4, 2,6-bis(1,1-dimethylethyl)-4-methoxy phenyl[[[2,6-bis(1-methylethyl)phenyl]amino]sulfonyl]carbamate] | -77% |  | 
37 | Cc1cc(C(C)(C)C)c(OC(=O)NS(=O)(=O)N(CC2CCCO2)CC2CCCO2)c(C(C)(C)C)c1 (centres unmarked) [Example 30, 2,6-Bis(1,1-dimethylethyl)4-methylphenyl[[bis[(tetrahydro-2-furanyl)methyl]amino]sulfonyl]carbamate] | 2% |  | 
38 | CC(C)c1cccc(C(C)C)c1OC(=O)NS(=O)(=O)N1CCCC1 [Example 52, 2,6-Bis(1-methylethyl)-phenyl ester(1-pyrrolidinylsulfonyl)-carbamic acid] | -53% |  | 
39 | CC(C)c1cccc(C(C)C)c1OC(=O)NS(=O)(=O)N(C(C)C)C1CCCCC1 [Example 39, 2,6-Bis(1-methylethyl)phenyl[[cyclohexyl(1-methylethyl)amino]sulfonyl]carbamate] | -60% |  | 
40 | CCCCCCCCN(C)S(=O)(=O)NC(=O)Oc1c(C(C)(C)C)cc(C)cc1C(C)(C)C [Example 29, 2,6-Bis(1,1-dimethylethyl)-4-methylphenyl[(methyloctylamino)sulfonyl]carbamate] | -55% |  | 
41 | CC(C)c1cccc(C(C)C)c1OC(=O)NS(=O)(=O)NCC(c1ccccc1)c1ccccc1 [Example 15] |  | -29% | 

From US5336690A, “Aminosulfonyl carbamates composition and method of use to treat hypercholesterolemia and atherosclerosis” (Warner-Lambert Company, priority 1993, dated 1994)
